# Measurements as given in the NIST ThermoML archive (doi:10.1016/j.jct.2008.06.002).
# Where “and” joins values, the source holds several entries; their conditions need not be identical. Equal values may be shown once. Numbers after ± are expanded uncertainties.
# Settings: Liquid
compound,measurement,setting,value
O=C=O [carbon dioxide],vapor or sublimation pressure,258.44 K,2294 ± 43 kPa
same,vapor or sublimation pressure,278.25 K,3977 ± 74 kPa
same,vapor or sublimation pressure,298.84 K,6502.6 ± 120 kPa
"CC(F)F [1,1-difluoroethane]",vapor or sublimation pressure,253.68 K,115.2 ± 4.5 kPa
same,vapor or sublimation pressure,258.44 K,142.2 ± 5.5 kPa and 144 ± 5.5 kPa
same,vapor or sublimation pressure,263.39 K,174.9 ± 6.7 kPa
same,vapor or sublimation pressure,268.32 K,213.7 ± 8.1 kPa
same,vapor or sublimation pressure,273.23 K,256.8 ± 9.7 kPa
same,vapor or sublimation pressure,278.19 K,308.1 ± 12 kPa
same,vapor or sublimation pressure,278.25 K,311.7 ± 12 kPa
same,vapor or sublimation pressure,283.31 K,368.5 ± 14 kPa
same,vapor or sublimation pressure,288.27 K,432.9 ± 16 kPa
same,vapor or sublimation pressure,293.23 K,506.8 ± 19 kPa
same,vapor or sublimation pressure,298.17 K,590.3 ± 22 kPa
same,vapor or sublimation pressure,298.84 K,604.4 ± 23 kPa
same,vapor or sublimation pressure,303.37 K,687.6 ± 26 kPa
same,vapor or sublimation pressure,308.31 K,791 ± 30 kPa
same,vapor or sublimation pressure,308.37 K,812.5 ± 30 kPa
same,vapor or sublimation pressure,313.19 K,904.5 ± 34 kPa
same,vapor or sublimation pressure,318.25 K,1034.8 ± 39 kPa
same,vapor or sublimation pressure,323.26 K,1175.4 ± 44 kPa
same,vapor or sublimation pressure,323.3 K,1185.5 ± 44 kPa
same,vapor or sublimation pressure,328.12 K,1326.8 ± 50 kPa
same,vapor or sublimation pressure,333.31 K,1502.3 ± 56 kPa
same,vapor or sublimation pressure,338.19 K,1683.5 ± 63 kPa
same,vapor or sublimation pressure,343.1 K,1879.6 ± 70 kPa
same,vapor or sublimation pressure,343.2 K,1891.7 ± 71 kPa
same,vapor or sublimation pressure,348.26 K,2104.6 ± 78 kPa
